Laboratory results: ChEMBL document CHEMBL6134854, “Development of Hydrazide-Based HDAC6 Selective Inhibitors for Treating NLRP3 Inflammasome-Related Diseases” (J Med Chem, 2025)

Key:
[1] = target: Histone deacetylase 3 (Homo sapiens, UniProt O15379); experiment: Inhibition of recombinant HDAC3 (unknown origin) using Boc-Lys (acetyl)-AMC as substrate preincubated for 1 hrs followed by substrate addition and measured after 2 hrs by fluorescence based microplate reader analysis
[2] = target: Histone deacetylase 2 (Homo sapiens, UniProt Q92769); experiment: Inhibition of recombinant HDAC2 (unknown origin) using Boc-Lys (acetyl)-AMC as substrate preincubated for 1 hrs followed by substrate addition and measured after 2 hrs by fluorescence based microplate reader analysis
[3] = target: Histone deacetylase 1 (Homo sapiens, UniProt Q13547); experiment: Inhibition of recombinant HDAC1 (unknown origin) using Boc-Lys (acetyl)-AMC as substrate preincubated for 1 hrs followed by substrate addition and measured after 2 hrs by fluorescence based microplate reader analysis
[4] = target: T1, Histone deacetylase 8 (Homo sapiens, UniProt Q9BY41); experiment: Inhibition of recombinant HDAC8 (unknown origin) using Boc-Lys (trifluoroacetyl)AMC as substrate preincubated for 1 hrs followed by substrate addition and measured after 2 hrs by fluorescence based microplate reader analysis
T1 sequence (Q9BY41 whole entry): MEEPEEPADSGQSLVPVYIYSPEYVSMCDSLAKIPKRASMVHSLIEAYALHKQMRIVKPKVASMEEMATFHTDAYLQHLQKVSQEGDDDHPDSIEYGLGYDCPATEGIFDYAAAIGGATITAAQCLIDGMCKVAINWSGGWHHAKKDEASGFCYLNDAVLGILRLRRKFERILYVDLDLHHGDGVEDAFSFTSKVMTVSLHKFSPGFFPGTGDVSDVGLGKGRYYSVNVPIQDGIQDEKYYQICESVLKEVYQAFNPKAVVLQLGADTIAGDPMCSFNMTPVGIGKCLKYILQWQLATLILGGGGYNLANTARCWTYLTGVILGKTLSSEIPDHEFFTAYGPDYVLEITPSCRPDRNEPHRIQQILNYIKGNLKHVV

[5] = target: T2, Histone deacetylase 7 (Homo sapiens, UniProt Q8WUI4); experiment: Inhibition of recombinant HDAC7 (unknown origin) using Boc-Lys (trifluoroacetyl)AMC as substrate preincubated for 1 hrs followed by substrate addition and measured after 2 hrs by fluorescence based microplate reader analysis
T2 sequence (Q8WUI4 whole entry): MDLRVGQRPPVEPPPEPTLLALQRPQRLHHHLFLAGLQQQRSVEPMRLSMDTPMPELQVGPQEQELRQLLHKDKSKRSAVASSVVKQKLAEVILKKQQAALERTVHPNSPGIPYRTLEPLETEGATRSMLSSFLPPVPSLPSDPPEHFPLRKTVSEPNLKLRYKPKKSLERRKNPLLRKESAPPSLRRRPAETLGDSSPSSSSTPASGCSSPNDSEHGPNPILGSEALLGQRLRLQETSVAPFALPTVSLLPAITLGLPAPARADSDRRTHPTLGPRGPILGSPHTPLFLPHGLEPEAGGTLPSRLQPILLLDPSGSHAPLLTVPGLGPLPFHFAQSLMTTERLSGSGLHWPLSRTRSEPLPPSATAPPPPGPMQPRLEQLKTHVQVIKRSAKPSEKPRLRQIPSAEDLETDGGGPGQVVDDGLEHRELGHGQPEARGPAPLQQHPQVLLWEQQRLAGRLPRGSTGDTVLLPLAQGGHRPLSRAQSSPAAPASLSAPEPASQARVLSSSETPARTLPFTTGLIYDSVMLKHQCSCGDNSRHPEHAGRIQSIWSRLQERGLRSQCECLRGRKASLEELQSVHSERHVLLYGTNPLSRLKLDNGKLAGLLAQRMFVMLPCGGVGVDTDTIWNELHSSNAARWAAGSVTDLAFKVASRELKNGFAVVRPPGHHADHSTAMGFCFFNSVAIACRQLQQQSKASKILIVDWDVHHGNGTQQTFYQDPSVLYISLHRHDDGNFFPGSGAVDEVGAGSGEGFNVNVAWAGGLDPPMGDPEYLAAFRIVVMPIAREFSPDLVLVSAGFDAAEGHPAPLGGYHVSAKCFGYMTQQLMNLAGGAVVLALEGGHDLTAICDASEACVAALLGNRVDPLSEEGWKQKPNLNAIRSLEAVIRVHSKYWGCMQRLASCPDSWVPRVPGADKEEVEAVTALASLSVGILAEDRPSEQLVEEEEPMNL

[6] = target: T3, Histone deacetylase 11 (Homo sapiens, UniProt Q96DB2); experiment: Inhibition of recombinant HDAC11 (unknown origin) using ETDKacyl-Kmyr as substrate preincubated for 1 hrs followed by substrate addition and measured after 2 hrs by fluorescence based microplate reader analysis
T3 sequence (Q96DB2 whole entry): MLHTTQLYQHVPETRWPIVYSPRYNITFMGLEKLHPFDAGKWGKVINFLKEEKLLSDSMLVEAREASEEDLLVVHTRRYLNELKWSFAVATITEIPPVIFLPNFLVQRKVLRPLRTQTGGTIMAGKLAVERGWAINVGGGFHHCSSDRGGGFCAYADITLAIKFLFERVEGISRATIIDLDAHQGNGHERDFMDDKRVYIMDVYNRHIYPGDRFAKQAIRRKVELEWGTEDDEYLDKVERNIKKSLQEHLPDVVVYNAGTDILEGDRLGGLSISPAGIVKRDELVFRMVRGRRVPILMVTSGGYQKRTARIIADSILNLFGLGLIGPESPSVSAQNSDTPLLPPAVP

[7] = target: Histone deacetylase 5 (Homo sapiens, UniProt Q9UQL6); experiment: Inhibition of recombinant HDAC5 (unknown origin) using Boc-Lys (trifluoroacetyl)AMC as substrate preincubated for 1 hrs followed by substrate addition and measured after 2 hrs by fluorescence based microplate reader analysis
[8] = target: Histone deacetylase 9 (Homo sapiens, UniProt Q9UKV0); experiment: Inhibition of recombinant HDAC9 (unknown origin) using Boc-Lys (trifluoroacetyl)AMC as substrate preincubated for 1 hrs followed by substrate addition and measured after 2 hrs by fluorescence based microplate reader analysis
[9] = target: T4, Polyamine deacetylase HDAC10 (Homo sapiens, UniProt Q969S8); experiment: Inhibition of recombinant HDAC10 (unknown origin) using Ac-Gly-Ala-Lys(AMC) as substrate preincubated for 1 hrs followed by substrate addition and measured after 2 hrs by fluorescence based microplate reader analysis
T4 sequence (Q969S8 whole entry): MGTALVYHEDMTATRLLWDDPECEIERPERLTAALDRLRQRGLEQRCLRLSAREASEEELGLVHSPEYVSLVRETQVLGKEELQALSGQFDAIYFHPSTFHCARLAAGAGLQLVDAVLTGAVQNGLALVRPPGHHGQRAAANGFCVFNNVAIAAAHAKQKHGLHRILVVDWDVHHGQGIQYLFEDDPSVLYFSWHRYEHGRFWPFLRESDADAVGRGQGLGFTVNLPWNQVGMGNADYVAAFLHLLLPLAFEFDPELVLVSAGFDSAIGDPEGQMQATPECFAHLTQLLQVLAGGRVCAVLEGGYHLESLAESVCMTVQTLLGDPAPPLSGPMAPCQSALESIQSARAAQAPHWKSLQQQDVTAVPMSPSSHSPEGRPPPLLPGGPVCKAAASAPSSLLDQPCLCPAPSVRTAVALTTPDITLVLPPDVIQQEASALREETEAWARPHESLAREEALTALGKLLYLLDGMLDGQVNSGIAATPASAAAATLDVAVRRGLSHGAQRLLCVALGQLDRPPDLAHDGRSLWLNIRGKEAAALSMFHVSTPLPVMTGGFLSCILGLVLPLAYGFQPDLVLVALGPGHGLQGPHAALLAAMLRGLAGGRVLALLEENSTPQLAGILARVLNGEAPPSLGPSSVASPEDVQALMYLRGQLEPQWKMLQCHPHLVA

[10] = target: Histone deacetylase 4 (Homo sapiens, UniProt P56524); experiment: Inhibition of recombinant HDAC4 (unknown origin) using Boc-Lys (trifluoroacetyl)AMC as substrate preincubated for 1 hrs followed by substrate addition and measured after 2 hrs by fluorescence based microplate reader analysis
[11] = tested on: L02; experiment: Cytotoxicity against HL7702 cells assessed as effect on cell viability at 10 uM incubated for 48 hrs by resazurin reagent based assay; type: toxicity; details: human, l02, 48 h
[12] = in vivo; details: male, ICR, mouse, iv, 5 mg/kg
[13] = tested on: J774.A1; experiment: cells; details: Mus musculus, J774.A1, 48 h
[14] = in vivo; details: male, ICR, mouse, iv, 5 mg/kg; remark: listed apart in the source
[15] = tested on: L02; experiment: Cytotoxicity against HL7702 cells assessed as effect on cell viability incubated for 48 hrs by resazurin reagent based assay; type: toxicity; details: human, l02, 48 h

Histone deacetylase 2, sequence (Q92769 whole entry): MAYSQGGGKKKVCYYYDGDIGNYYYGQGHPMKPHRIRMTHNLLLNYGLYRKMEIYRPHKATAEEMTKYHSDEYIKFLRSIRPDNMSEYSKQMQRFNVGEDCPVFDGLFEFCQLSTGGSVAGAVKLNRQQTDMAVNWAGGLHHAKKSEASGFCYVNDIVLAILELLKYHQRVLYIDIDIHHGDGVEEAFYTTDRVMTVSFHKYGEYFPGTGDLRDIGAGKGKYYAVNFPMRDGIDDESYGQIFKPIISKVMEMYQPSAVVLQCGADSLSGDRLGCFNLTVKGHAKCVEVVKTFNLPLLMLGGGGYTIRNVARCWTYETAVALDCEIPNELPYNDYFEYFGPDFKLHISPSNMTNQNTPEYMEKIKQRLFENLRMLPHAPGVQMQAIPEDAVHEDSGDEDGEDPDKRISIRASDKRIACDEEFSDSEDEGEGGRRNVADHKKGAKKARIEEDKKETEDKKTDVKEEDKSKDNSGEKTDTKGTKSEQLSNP
Histone deacetylase 1, sequence (Q13547 whole entry): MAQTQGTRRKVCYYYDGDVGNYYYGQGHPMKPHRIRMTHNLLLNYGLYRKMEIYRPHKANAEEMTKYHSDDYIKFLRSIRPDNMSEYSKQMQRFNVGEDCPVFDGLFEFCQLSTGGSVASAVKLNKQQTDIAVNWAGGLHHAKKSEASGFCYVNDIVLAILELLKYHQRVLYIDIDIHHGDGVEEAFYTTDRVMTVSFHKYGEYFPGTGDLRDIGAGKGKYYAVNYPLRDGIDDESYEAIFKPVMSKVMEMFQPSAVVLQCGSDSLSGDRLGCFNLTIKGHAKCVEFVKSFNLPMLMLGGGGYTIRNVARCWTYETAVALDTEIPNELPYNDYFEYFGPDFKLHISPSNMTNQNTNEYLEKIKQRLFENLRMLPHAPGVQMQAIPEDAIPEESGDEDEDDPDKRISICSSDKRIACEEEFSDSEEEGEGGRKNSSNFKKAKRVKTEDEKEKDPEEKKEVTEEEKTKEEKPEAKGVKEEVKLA
Histone deacetylase 3, sequence (O15379 whole entry): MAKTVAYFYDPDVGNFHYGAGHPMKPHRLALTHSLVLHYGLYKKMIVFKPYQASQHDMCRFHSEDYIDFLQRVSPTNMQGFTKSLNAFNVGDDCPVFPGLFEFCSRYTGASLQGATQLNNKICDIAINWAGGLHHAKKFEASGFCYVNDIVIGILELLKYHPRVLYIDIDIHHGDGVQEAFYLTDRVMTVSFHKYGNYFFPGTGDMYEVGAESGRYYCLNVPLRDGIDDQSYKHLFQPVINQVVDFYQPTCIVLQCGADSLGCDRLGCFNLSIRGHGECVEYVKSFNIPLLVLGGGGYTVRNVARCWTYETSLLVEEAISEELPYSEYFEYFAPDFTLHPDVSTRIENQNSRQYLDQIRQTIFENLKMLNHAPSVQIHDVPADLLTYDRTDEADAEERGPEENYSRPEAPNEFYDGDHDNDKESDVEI
Histone deacetylase 4, sequence (P56524 whole entry): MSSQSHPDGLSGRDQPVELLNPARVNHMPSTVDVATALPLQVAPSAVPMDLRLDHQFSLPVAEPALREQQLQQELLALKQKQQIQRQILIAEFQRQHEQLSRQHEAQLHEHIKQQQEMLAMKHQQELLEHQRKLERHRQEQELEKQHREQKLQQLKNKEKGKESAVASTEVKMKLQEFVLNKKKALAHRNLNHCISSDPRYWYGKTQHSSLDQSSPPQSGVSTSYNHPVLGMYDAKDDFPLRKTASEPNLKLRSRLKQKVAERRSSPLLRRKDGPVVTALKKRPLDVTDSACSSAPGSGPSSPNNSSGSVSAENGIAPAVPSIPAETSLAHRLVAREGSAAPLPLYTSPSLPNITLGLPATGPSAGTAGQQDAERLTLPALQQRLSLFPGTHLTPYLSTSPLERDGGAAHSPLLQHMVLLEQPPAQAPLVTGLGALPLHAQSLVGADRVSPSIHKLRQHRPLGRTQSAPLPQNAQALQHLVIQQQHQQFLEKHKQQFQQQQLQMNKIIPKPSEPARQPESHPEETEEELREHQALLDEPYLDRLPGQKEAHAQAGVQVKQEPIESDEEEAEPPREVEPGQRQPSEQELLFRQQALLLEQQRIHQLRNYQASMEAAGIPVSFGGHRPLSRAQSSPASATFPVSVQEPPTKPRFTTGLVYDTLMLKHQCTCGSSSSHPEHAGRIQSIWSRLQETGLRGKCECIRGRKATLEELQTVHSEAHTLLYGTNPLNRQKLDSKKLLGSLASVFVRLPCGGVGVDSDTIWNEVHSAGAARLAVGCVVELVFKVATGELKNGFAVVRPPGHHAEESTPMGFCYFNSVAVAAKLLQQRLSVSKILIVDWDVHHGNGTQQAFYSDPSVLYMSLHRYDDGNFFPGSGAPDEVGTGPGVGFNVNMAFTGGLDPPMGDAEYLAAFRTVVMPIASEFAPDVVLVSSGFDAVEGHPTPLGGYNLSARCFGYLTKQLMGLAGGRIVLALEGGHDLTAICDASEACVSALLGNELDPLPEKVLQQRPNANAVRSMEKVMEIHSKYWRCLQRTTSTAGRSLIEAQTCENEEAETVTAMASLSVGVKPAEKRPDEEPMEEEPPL
Histone deacetylase 9, sequence (Q9UKV0 whole entry): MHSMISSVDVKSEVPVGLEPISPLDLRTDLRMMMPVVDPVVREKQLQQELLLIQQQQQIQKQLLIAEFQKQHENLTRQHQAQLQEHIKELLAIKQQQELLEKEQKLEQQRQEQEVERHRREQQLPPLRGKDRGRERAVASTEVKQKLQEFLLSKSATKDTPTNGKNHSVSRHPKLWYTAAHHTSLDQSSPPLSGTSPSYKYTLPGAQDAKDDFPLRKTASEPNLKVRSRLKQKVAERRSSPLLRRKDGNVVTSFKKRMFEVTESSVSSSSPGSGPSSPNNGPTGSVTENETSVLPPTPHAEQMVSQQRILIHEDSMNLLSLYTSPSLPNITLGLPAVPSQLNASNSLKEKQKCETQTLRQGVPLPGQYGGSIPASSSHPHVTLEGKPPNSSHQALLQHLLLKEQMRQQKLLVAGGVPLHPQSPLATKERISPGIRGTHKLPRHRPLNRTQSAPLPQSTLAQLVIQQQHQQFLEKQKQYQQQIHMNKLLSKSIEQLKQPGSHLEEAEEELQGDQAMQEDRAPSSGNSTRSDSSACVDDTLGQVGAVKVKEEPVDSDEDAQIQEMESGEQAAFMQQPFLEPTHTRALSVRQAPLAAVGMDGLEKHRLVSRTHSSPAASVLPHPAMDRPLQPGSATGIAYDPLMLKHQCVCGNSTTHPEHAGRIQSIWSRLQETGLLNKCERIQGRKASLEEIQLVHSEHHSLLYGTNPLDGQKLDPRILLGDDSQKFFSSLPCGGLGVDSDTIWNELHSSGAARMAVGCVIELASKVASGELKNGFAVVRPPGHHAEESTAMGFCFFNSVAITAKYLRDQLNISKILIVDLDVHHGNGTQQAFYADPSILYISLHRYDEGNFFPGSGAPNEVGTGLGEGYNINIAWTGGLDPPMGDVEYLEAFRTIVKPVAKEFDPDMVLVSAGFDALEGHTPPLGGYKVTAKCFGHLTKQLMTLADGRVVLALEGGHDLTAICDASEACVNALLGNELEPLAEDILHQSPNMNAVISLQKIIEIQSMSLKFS
Histone deacetylase 5, sequence (Q9UQL6 whole entry): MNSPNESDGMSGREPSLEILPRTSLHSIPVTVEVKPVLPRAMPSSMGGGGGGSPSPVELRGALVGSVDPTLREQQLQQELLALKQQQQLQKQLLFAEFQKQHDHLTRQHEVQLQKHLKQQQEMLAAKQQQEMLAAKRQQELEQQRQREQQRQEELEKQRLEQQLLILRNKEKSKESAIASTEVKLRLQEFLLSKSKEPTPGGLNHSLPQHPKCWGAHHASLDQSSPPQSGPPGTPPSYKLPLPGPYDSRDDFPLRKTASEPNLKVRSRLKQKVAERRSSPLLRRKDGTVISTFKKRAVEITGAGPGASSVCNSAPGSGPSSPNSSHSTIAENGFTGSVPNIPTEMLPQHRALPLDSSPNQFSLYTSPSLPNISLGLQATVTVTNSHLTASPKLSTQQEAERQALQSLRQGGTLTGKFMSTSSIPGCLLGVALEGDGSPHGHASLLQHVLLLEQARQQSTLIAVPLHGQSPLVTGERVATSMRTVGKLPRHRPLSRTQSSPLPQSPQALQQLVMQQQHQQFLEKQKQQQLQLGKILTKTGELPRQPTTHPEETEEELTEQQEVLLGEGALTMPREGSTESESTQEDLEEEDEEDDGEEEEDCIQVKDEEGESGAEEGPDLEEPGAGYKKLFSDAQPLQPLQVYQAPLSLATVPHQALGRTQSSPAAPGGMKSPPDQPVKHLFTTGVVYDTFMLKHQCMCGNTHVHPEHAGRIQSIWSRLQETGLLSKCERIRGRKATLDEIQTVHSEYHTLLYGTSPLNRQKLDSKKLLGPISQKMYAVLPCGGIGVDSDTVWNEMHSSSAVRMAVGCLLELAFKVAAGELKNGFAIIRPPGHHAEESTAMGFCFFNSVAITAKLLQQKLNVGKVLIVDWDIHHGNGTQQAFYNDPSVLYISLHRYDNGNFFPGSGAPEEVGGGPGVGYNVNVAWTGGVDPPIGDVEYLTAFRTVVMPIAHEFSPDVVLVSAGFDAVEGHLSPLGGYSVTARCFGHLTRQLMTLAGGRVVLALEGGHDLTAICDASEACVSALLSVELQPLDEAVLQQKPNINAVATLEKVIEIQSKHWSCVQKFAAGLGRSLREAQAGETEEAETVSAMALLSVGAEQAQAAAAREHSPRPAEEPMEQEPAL

IC50 [1] [µM]	IC50 [2] [µM]	IC50 [3] [µM]	Structure (SMILES)	other results
> 10	> 10	> 10	CCNNC(=O)c1cc(F)c(Cn2c3ccccc3c3cccnc32)cc1F	–
> 10	> 10	> 10	CCNNC(=O)c1cc(F)c(CNc2cccc3cccnc23)cc1F	–
7.04	> 10	> 10	CCNNC(=O)c1cc(F)c(CN2c3ccccc3C=Cc3ccncc32)cc1F	IC50 [4]: > 10 µM; IC50 [5]: > 10 µM; IC50 [6]: > 10 µM; IC50 [7]: > 10 µM; IC50 [8]: > 10 µM; IC50 [9]: > 10 µM; IC50 [10]: > 10 µM
6.37	> 10	> 10	O=C(NNCCF)c1ccc(CN2c3ccccc3C=Cc3ccncc32)cc1	–
> 10	> 10	> 10	CCNNC(=O)c1cc(F)c(CN2c3ccccc3C=Cc3ccncc32)c(F)c1	–
3.75	> 10	8.74	CCNNC(=O)c1ccc(CN2c3ccccc3C=Cc3ccncc32)c(F)c1	IC50 [4]: > 10 µM; IC50 [5]: > 10 µM; IC50 [6]: > 10 µM; IC50 [7]: > 10 µM; IC50 [8]: 2.27 µM; IC50 [9]: > 10 µM; IC50 [10]: > 10 µM
> 10	> 10	> 10	CCNNC(=O)c1cc(F)c(CN2c3ccccc3C=Cc3ccccc32)cc1F	–
1.79	> 10	> 10	CCNNC(=O)c1ccc(CN2c3ccccc3C=Cc3ccncc32)cc1F	–
–	–	–	CCNNC(=O)c1ccc(CN2c3ccccc3C=Cc3ccncc32)cc1	Activity [11]: Toxic; Vd at 24 h [12]: 3.51 L/kg; IC50 [9]: > 10 µM; IC50 [13]: 25.6 µM; clearance at 24 h [14]: 30.6 mL/min/kg
> 10	> 10	> 10	CCNNC(=O)c1cc(F)c(Cn2c3ccccc3c3ccccc32)cc1F	–
–	–	–	O=C(CCCCCCNC(=O)c1cnc(N(c2ccccc2)c2ccccc2)nc1)NO [RICOLINOSTAT]	Activity [15]: Toxic
> 10	> 10	> 10	CCNNC(=O)c1cc(F)c(CN2c3ccccc3Sc3cccnc32)cc1F	–
